# Data reported in patent publication US10961238B2, “Modulators of hedgehog (Hh) signaling pathway” (E-THERAPEUTICS PLC, priority 2016, dated 2021).
# Tested on: C3H10T1/2 cells
# Test: C3H assay: differentiation of C3H10T1/2 cells by mSHH, measurement of alkaline phosphatase
# Type: cell-based, mouse
# Settings: Mus musculus, C3H 10T1/2; C3H10T1/2 cells stimulated with mSHH for 72 hours; alkaline phosphatase activity; read-out: IC50 Ranges
row,IC50 [µM],SMILES
1,1 to 10,"O=C(Oc1ccc(F)cc1)N1CC(S(=O)(=O)N2CCC(c3ccncc3)CC2)C1 [Compound 280, (4-fluorophenyl) 3-(4-pyridin-4-ylpiperidin-1-yl) sulfonylaze-tidine-1-carboxylate]"
2,0.1 to 1,"Cc1noc(C)c1NC(=O)N1CC(S(=O)(=O)N2CCC(c3ccncc3)CC2)C1 [Compound 262, N-(3,5-dimethyl-1,2-oxazol-4-yl)-3-(4-pyridin-4-ylpiperidin-1-yl)sulfonylaze-tidine-1-carboxamide]"
3,0.01 to 0.1,"CN(C(=O)N1CCC(S(=O)(=O)N2CCC(c3c[nH]c4ncccc34)CC2)C1)C(C)(C)C (stereo not drawn) [Compound 272, N-tert-butyl-N-methyl-3-[4-(1H-pyrrolo[2,3-b]pyridin-3-yl)piperidin-1-yl]sulfonylpyrr olidine-1-carboxamide]"
4,0.01 to 0.1,"O=C(NC1(C(F)(F)F)CC1)[C@H]1C[C@@H](S(=O)(=O)N2CCC(c3c[nH]c4ncccc34)CC2)C1 [Compound 297, cis-3-[4-(1H-pyrrolo[2,3-b]pyridin-3-yl)piperidin-1-yl]sulfonyl-N-[1-(trifluoromethyl)cyclopropyl] cyclobutane-1-carboxamide]"
5,0.1 to 1,"Cc1ccc(F)cc1NC(=O)N1CC(S(=O)(=O)N2CCC(c3ccc(C#N)cc3)CC2)C1 [Compound 366, 3-[4-(4-cyanophenyl)piperidin-1-yl]sulfonyl-N-(5-fluoro-2-methylphenyl) azetidine-1-carboxamide]"
6,1 to 10,"CC(C)(C)OC(=O)N1CC(S(=O)(=O)N2CCN(c3nsc4ccccc34)CC2)C1 [Compound 225, tert-butyl 3-[4-(1,H-benzothiazol-3-yl)piperazin-1-yl]sulfonylaze-tidine-1-carboxylate]"
7,0.01 to 0.1,"N#Cc1ccnc(N2CC(S(=O)(=O)N3CCC(c4c[nH]c5ncccc45)CC3)C2)c1 [Compound 242, 2-[3-[4-(1H-pyrrolo[2,3-b]pyridin-3-yl)piperidin-1-yl]sulfonylaze-tidin-1-yl] pyridine-4-carbonitrile]"
8,0.01 to 0.1,"Cc1noc(C)c1NC(=O)[C@H]1C[C@@H](S(=O)(=O)N2CCC(c3c[nH]c4ncccc34)CC2)C1 [Compound 309, cis-N-(3,5-dimethyl-1,2-oxazol-4-yl)-3-[4-(1H-pyrrolo [2,3-b]pyridin-3-yl)piperidin-1-yl]sulfonylcycl obutane-1-carboxamide]"
9,0.01 to 0.1,"CC1(C)COCN1C(=O)N1CC(S(=O)(=O)N2CCC(c3ccc(Cl)cc3)CC2)C1 [Compound 411, [3-[4-(4-chlorophenyl)piperidin-1-yl]-sulfonylaze-tidin-1-yl]-(4,4-dimethyl-1,3-oxazolidin-3-yl)-methanone]"
10,1 to 10,"O=C(NCCS(=O)(=O)N1CCC(c2ccncc2)CC1)OC1CCCCC1 [Compound 291, cyclohexyl N-[2-(4-pyridin-4-ylpiperidin-1-yl)sulfonylethyl] carbamate]"
11,1 to 10,"CN(C)CC(=O)N1CC(S(=O)(=O)N2CCC(c3coc4cccnc34)CC2)C1 [Compound 329, 2-(dimethylamino)-1-[3-(4-furo[3,2-b]pyridin-3-ylpiperidin-1-yl)sulfonylaze-tidin-1-yl]ethanone]"
12,0.01 to 0.1,"CC(C)(C(=O)N1CC(S(=O)(=O)N2CCC(c3c[nH]c4ncccc34)CC2)C1)C(F)(F)F [Compound 323, 3,3,3-trifluoro-2,2-dimethyl-1-[3-[4-(1H-pyrrolo[2,3-b]pyridin-3-yl)piperidin-1-yl]sulfonylaze-tidin-1-yl]propan-1-one]"
13,1 to 10,"CN(C)CC1(CN2CC(S(=O)(=O)N3CCC(c4c[nH]c5ncccc45)CC3)C2)CCCC1 [Compound 247, N,N-dimethyl-1-[1-[[3-[4-(1H-pyrrolo[2,3-b]pyridin-3-yl)piperidin-1-yl]sulfonylaze-tidin-1-yl]methyl]cyclopentyl] methanamine]"
14,1 to 10,"CC(C)(C)OC(=O)N1CCC(S(=O)(=O)N2CC=C(c3ncnc4[nH]ccc34)CC2)CC1 [Compound 238, tert-butyl 4-[[4-(7H-pyrrolo[2,3-d]pyrimidin-4-yl)-3,6-dihydro-2H-pyridin-1-yl]sulfonyl] piperidine-l-carboxylate]"
15,0.01 to 0.1,"CCOc1cccc(N2CC(S(=O)(=O)N3CCC(c4c[nH]c5ncccc45)CC3)C2)n1 [Compound 243, 3-[1-[1-(6-ethoxypyridin-2-yl)azetidin-3-yl]sulfonylpiper-idin-4-yl]-1H-pyrrolo[2,3-b]pyridine]"

# The next lines start with the compound.
row,SMILES,IC50 [µM]
1,Cc1[nH]c2ncccc2c1C1CCN(S(=O)(=O)C2CN(C(=O)OC(C)(C)C)C2)CC1 [Compound 224],1 to 10
2,"O=C(OC1CCCCC1)N1CC(S(=O)(=O)N2CCC(c3c[nH]c4nccnc34)CC2)C1 [Compound 44, cyclohexyl 3-[4-(5H-pyrrolo[2,3-b]pyrazin-7-yl)piperidin-1-yl]sulfonylaze-tidine-1-carboxylate]",0.01 to 0.1
3,"CC(C)(C)OC(=O)N1CC(S(=O)(=O)N2CCC(c3c[nH]c4ncc(F)cc34)CC2)C1 [Compound 1, tert-butyl 3[4-(5-fluoro-1H-pyrrolo[2,3-b]pyridin-3-yl)piperidin-1-yl]sulfonylaze-tidine-1-carboxylate]",0.1 to 1
4,"O=C(Oc1ccccc1)N1CCC(S(=O)(=O)N2CCC(c3ccncc3)CC2)CC1 [Compound 114, phenyl 4-(4-pyridin-4-ylpiperidin-1-yl)sulfonylpiper-idine-1-carboxylate]",1 to 10
5,"O=C(OC1CCCCC1)N1CC(S(=O)(=O)N2CCC(c3c[nH]c4cccnc34)CC2)C1 [Compound 41, cyclohexyl 3-[4-(1H-pyrrolo[3,2-b]pyridin-3-yl)piperidin-1-yl]sulfonylaze-tidine-1-carboxylate]",0.01 to 0.1
6,"CN(Cc1ccco1)C(=O)N1CC(S(=O)(=O)N2CCC(c3c[nH]c4ncccc34)CC2)C1 [Compound 178, N-(2-Furylmethyl)-N-methyl-3-[[4-(1H-pyrrolo[2,3-b]pyridin-3-yl)-1-piperidyl]sulfonyl]azetidine-1-carboxamide]",0.01 to 0.1
7,"CC(C)(C)OC(=O)N1CCC(S(=O)(=O)N2CCC(c3ccncc3)CC2)CC1 [Compound 23, tert-butyl 4-(4-pyridin-4-ylpiperidin-1-yl)sulfonylpiper-idine-1-carboxylate]",0.1 to 1
8,"COCCOC(=O)N1CC(S(=O)(=O)N2CCC(c3c[nH]c4ncccc34)CC2)C1 [Compound 65, 2-methoxyethyl 3-[4-(1H-pyrrolo[2,3-b]pyridin-3-yl)piperidin-1-yl]sulfonylaze-tidine-1-carboxylate]",0.1 to 1
9,"O=C(OCc1ccco1)N1CC(S(=O)(=O)N2CCC(c3c[nH]c4ncccc34)CC2)C1 [Compound 83, furan-2-ylmethyl 3-[4-(1H-pyrrolo[2,3-b]pyridin-3-yl)piperidin-1-yl]sulfonylaze-tidine-1-carboxylate]",1 to 10
10,"O=C(C1CCCC1)N1CC(S(=O)(=O)N2CCC(c3c[nH]c4ncccc34)CC2)C1 [Compound 190, cyclopentyl-[3-[4-(1H-pyrrolo[2,3-b]pyridin-3-yl)piperidin-1-yl]sulfonylaze-tidin-1-yl]methanone]",0.01 to 0.1
11,"CC(C)(C)OC(=O)N1CC(S(=O)(=O)N2CCC(c3cncn3Cc3ccccc3)CC2)C1 [Compound 3, tert-butyl 3-[4-(3-benzylimidazol-4-yl)piperidin-1-yl]sulfonylaze-tidine-1-carboxylate]",0.1 to 1
12,"CC(C)(C)CC(C)(C)NC(=O)N1CC(S(=O)(=O)N2CCC(c3ccncc3)CC2)C1 [Compound 33, 3-(4-pyridin-4-ylpiperidin-1-yl)sulfonyl-N-(2,4,4-trimethylpentan-2-yl)azetidine-1-carboxamide]",0.01 to 0.1
13,"COC1CCC(OC(=O)N2CC(S(=O)(=O)N3CCC(c4c[nH]c5ncccc45)CC3)C2)CC1 (stereo not drawn) [Compound 180, (4-methoxycyclohexyl) 3-[4-(1H-pyrrolo[2,3-b]pyridin-3-yl)piperidin-1-yl]sulfonylaze-tidine-1-carboxylate]",0.01 to 0.1
14,"CC(C)C(C(C)C)N1CC(S(=O)(=O)N2CCC(c3c[nH]c4ncccc34)CC2)C1 [Compound 148, 3-[1-[1-(2,4-dimethylpentan-3-yl)azetidin-3-yl]sulfonylpiper-idin-4-yl]-1H-pyrrolo[2,3-b]pyridine]",1 to 10
15,"C[C@@H]1CN(C(=O)N2CC(S(=O)(=O)N3CCC(c4cnc5occc5c4)CC3)C2)C[C@H](C)O1 [Compound 35, [(2R,6S)-2,6-dimethylmorpholin-4-yl]-[3-(4-furo[2,3-b]pyridin-5-ylpiperidin-1-yl)sulfonylaze-tidin-1-yl]methanone]",0.1 to 1
16,"Cc1noc(C)c1CC(=O)N1CC(S(=O)(=O)N2CCC(c3coc4cccnc34)CC2)C1 [Compound 138, N-2-(3,5-Dimethylisoxazol-4-yl)-acetyl 3-[(4-furo[3,2-b]pyridin-3-yl-1-piperidyl)sulfonyl]azetidine]",< 0.01
17,"CN(C)CC(C)(C)OC(=O)N1CC(S(=O)(=O)N2CCC(c3c[nH]c4ncccc34)CC2)C1 [Compound 50, [1-(dimethylamino)-2-methylpropan-2-yl] 3-[4-(1H-pyrrolo[2,3-b]pyridin-3-yl)piperidin-1-yl]sulfonylaze-tidine-1-carboxylate]",0.01 to 0.1
18,"O=C(OC1COCOC1)N1CC(S(=O)(=O)N2CCC(c3c[nH]c4ncccc34)CC2)C1 [Compound 220, 1,3-dioxan-5-yl 3-[4-(1H-pyrrolo[2,3-b]pyridin-3-yl)piperidin-1-yl]sulfonylaze-tidine-1-carboxylate]",0.01 to 0.1
19,"O=C(OCC1CCCO1)N1CC(S(=O)(=O)N2CCC(c3ccncc3)CC2)C1 (stereo not drawn) [Compound 30, (oxolan-2-yl)methyl 3-(4-pyridin-4-ylpiperidin-1-yl)sulfonylaze-tidine-1-carboxylate]",1 to 10
20,"O=C(OCCCN1CCCCC1)N1CC(S(=O)(=O)N2CCC(c3c[nH]c4ncccc34)CC2)C1 [Compound 58, 3-piperidin-1-ylpropyl 3-[4-(1H-pyrrolo[2,3-b]pyridin-3-yl)piperidin-1-yl]sulfonylaze-tidine-1-carboxylate]",0.1 to 1
21,"CN(C)S(=O)(=O)n1cc(C2CCN(S(=O)(=O)C3CN(C(=O)OC(C)(C)C)C3)CC2)c2cccnc21 [Compound 92, tert-butyl 3-[4-[1-(dimethylsulfamoyl)pyrrolo[2,3-b]pyridin-3-yl]piperidin-1-yl]sulfonylaze-tidine-1-carboxylate]",1 to 10
